Experimental data: ChEMBL document CHEMBL1909294, “Translating clinical findings into knowledge in drug safety evaluation--drug induced liver injury prediction system (DILIps)” (PLoS Comput Biol, 2011)

Legend:
[1] = system: Hepatotoxicity;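 on HepSE Combined Scores: combined hepatic side effect score as listed in the training data of the Drug Induced Liver Injury Prediction System (DILIps)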;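 on HepSE cholelithiasis: hepatic side effect score for cholelithiasis, drawn from the DILIps training data for predicting drug-induced liver injury; call rule not given here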;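 on HepSE cirrhosis: cirrhosis hepatic side effect score taken from the DILIps (drug-induced liver injury prediction) training set; call rule not given here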;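 on HepSE hepatitis: Hepatitis-related hepatic side effect score taken from the training data of DILIps, a prediction system for drug-induced liver injury; call rule not given here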;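 on HepSE jaundice: Jaundice-related hepatic side-effect score drawn from the training data of the DILIps (drug-induced liver injury prediction system); call rule not given here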;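 on HepSE liver function tests abnormal: hepatic side effect score taken from the DILIps (drug-induced liver injury prediction system) training data, here covering abnormal liver function test findings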
[2] = system: Hepatotoxicity; remark: listed apart in the source;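 on HepSE Combined Scores: combined hepatic side effect score as listed in the training data of the Drug Induced Liver Injury Prediction System (DILIps)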;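 on HepSE cholelithiasis: hepatic side effect score for cholelithiasis, drawn from the DILIps training data for predicting drug-induced liver injury; call rule not given here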;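 on HepSE cirrhosis: cirrhosis hepatic side effect score taken from the DILIps (drug-induced liver injury prediction) training set; call rule not given here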;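 on HepSE hepatitis: Hepatitis-related hepatic side effect score taken from the training data of DILIps, a prediction system for drug-induced liver injury; call rule not given here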;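 on HepSE jaundice: Jaundice-related hepatic side-effect score drawn from the training data of the DILIps (drug-induced liver injury prediction system); call rule not given here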;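 on HepSE liver function tests abnormal: hepatic side effect score taken from the DILIps (drug-induced liver injury prediction system) training data, here covering abnormal liver function test findings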
[3] = system: Hepatotoxicity; remark: listed apart in the source;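 on HepSE Combined Scores: combined hepatic side effect score as listed in the training data of the Drug Induced Liver Injury Prediction System (DILIps)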;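 on HepSE cholelithiasis: hepatic side effect score for cholelithiasis, drawn from the DILIps training data for predicting drug-induced liver injury; call rule not given here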;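 on HepSE cirrhosis: cirrhosis hepatic side effect score taken from the DILIps (drug-induced liver injury prediction) training set; call rule not given here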;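 on HepSE hepatitis: Hepatitis-related hepatic side effect score taken from the training data of DILIps, a prediction system for drug-induced liver injury; call rule not given here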;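 on HepSE jaundice: Jaundice-related hepatic side-effect score drawn from the training data of the DILIps (drug-induced liver injury prediction system); call rule not given here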;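 on HepSE liver function tests abnormal: hepatic side effect score taken from the DILIps (drug-induced liver injury prediction system) training data, here covering abnormal liver function test findings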
[4] = system: Hepatotoxicity; remark: listed apart in the source;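 on HepSE cholelithiasis: hepatic side effect score for cholelithiasis, drawn from the DILIps training data for predicting drug-induced liver injury; call rule not given here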;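 on HepSE cirrhosis: cirrhosis hepatic side effect score taken from the DILIps (drug-induced liver injury prediction) training set; call rule not given here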;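 on HepSE hepatitis: Hepatitis-related hepatic side effect score taken from the training data of DILIps, a prediction system for drug-induced liver injury; call rule not given here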;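 on HepSE jaundice: Jaundice-related hepatic side-effect score drawn from the training data of the DILIps (drug-induced liver injury prediction system); call rule not given here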;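 on HepSE liver function tests abnormal: hepatic side effect score taken from the DILIps (drug-induced liver injury prediction system) training data, here covering abnormal liver function test findings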
[5] = system: Hepatotoxicity; remark: listed apart in the source
[6] = system: Hepatotoxicity; remark: listed apart in the source
[7] = system: Hepatotoxicity; remark: listed apart in the source
[8] = system: Hepatotoxicity; remark: listed apart in the source
[9] = system: Hepatotoxicity; remark: listed apart in the source
[10] = system: Hepatotoxicity; remark: listed apart in the source
[11] = system: Hepatotoxicity; remark: listed apart in the source
[12] = system: Hepatotoxicity; remark: listed apart in the source
[13] = system: Hepatotoxicity; remark: listed apart in the source
[14] = system: Hepatotoxicity; remark: listed apart in the source

Compound | HepSE_liver function tests abnormal [1] | HepSE_jaundice [2] | HepSE_cirrhosis [3] | HepSE_cholelithiasis [4] | HepSE_hepatitis [5] | HepSE_Combined Scores [6] | HepSE_hepatic failure [7] | HepSE_hepatic necrosis [8] | HepSE_liver fatty [9] | HepSE_cholecystitis [10] | HepSE_liver disease [11] | HepSE_hepatomegaly [12] | HepSE_elevated liver function tests [13] | HepSE_bilirubinemia [14] | further results
C#C[C@]1(O)CC[C@H]2[C@@H]3CCC4=CC(=O)CC[C@@H]4[C@H]3CC[C@@]21CC [LEVONORGESTREL] |  |  |  |  |  |  |  |  |  |  |  |  |  |  | HepSE_liver function tests abnormal ([1]; Liver): 0; HepSE_jaundice ([2]; Liver): 0; HepSE_cirrhosis ([3]; Liver): 0; HepSE_cholelithiasis ([4]; Liver): 0; HepSE_hepatitis ([5]; Liver): 0; HepSE_Combined Scores ([6]; Liver): 0; HepSE_hepatic failure ([7]; Liver): 0; HepSE_hepatic necrosis ([8]; Liver): 0; HepSE_liver fatty ([9]; Liver): 0; HepSE_cholecystitis ([10]; Liver): 0; HepSE_liver disease ([11]; Liver): 0; HepSE_hepatomegaly ([12]; Liver): 0; HepSE_elevated liver function tests ([13]; Liver): 0; HepSE_bilirubinemia ([14]; Liver): 0
N[C@@H](Cc1cc(I)c(Oc2cc(I)c(O)c(I)c2)c(I)c1)C(=O)O [LEVOTHYROXINE] | 0 | 0 | 0 | 0 | 0 | 0 | 0 | 0 | 0 | 0 | 0 | 0 | 0 | 0 | 
CCC[C@@H]1C[C@@H](C(=O)N[C@@H]([C@H]2O[C@H](SC)[C@H](O)[C@@H](O)[C@H]2O)[C@@H](C)O)N(C)C1 [LINCOMYCIN] | 1 | 1 | 0 | 0 | 0 | 2 | 0 | 0 | 0 | 0 | 0 | 0 | 0 | 0 | 
Cl[C@H]1[C@H](Cl)[C@@H](Cl)[C@@H](Cl)[C@H](Cl)[C@H]1Cl [LINDANE] |  |  |  |  |  |  |  |  |  |  |  |  |  |  | HepSE_liver function tests abnormal ([1]; Liver): 0; HepSE_jaundice ([2]; Liver): 0; HepSE_cirrhosis ([3]; Liver): 0; HepSE_cholelithiasis ([4]; Liver): 0; HepSE_hepatitis ([5]; Liver): 0; HepSE_Combined Scores ([6]; Liver): 0; HepSE_hepatic failure ([7]; Liver): 0; HepSE_hepatic necrosis ([8]; Liver): 0; HepSE_liver fatty ([9]; Liver): 0; HepSE_cholecystitis ([10]; Liver): 0; HepSE_liver disease ([11]; Liver): 0; HepSE_hepatomegaly ([12]; Liver): 0; HepSE_elevated liver function tests ([13]; Liver): 0; HepSE_bilirubinemia ([14]; Liver): 0
CC(=O)NC[C@H]1CN(c2ccc(N3CCOCC3)c(F)c2)C(=O)O1 [LINEZOLID] | 1 | 1 | 0 | 0 | 0 | 2 | 0 | 0 | 0 | 0 | 0 | 0 | 0 | 0 | 
N[C@@H](Cc1cc(I)c(Oc2ccc(O)c(I)c2)c(I)c1)C(=O)O [LIOTHYRONINE] | 0 | 0 | 0 | 0 | 0 | 0 | 0 | 0 | 0 | 0 | 0 | 0 | 0 | 0 | 
NCCCC[C@H](N[C@@H](CCc1ccccc1)C(=O)O)C(=O)N1CCC[C@H]1C(=O)O [LISINOPRIL ANHYDROUS] | 0 | 1 | 0 | 0 | 1 | 3 | 1 | 0 | 0 | 0 | 0 | 0 | 0 | 0 | 
[Li] [LITHIUM] | 0 | 0 | 0 | 0 | 0 | 0 | 0 | 0 | 0 | 0 | 0 | 0 | 0 | 0 | 
N#Cc1cc(NC(=O)C(=O)O)c(Cl)c(NC(=O)C(=O)O)c1 [LODOXAMIDE] | 0 | 0 | 0 | 0 | 0 | 0 | 0 | 0 | 0 | 0 | 0 | 0 | 0 | 0 | 
O=NN(CCCl)C(=O)NC1CCCCC1 [LOMUSTINE] | 0 | 0 | 0 | 0 | 0 | 0 | 0 | 0 | 0 | 0 | 0 | 0 | 0 | 0 | 
CN(C)C(=O)C(CCN1CCC(O)(c2ccc(Cl)cc2)CC1)(c1ccccc1)c1ccccc1 [LOPERAMIDE] | 0 | 0 | 0 | 0 | 0 | 0 | 0 | 0 | 0 | 0 | 0 | 0 | 0 | 0 | 
N[C@@H](C(=O)N[C@@H]1C(=O)N2C(C(=O)O)=C(Cl)CC[C@H]12)c1ccccc1 [LORACARBEF ANHYDROUS] | 0 | 1 | 0 | 0 | 0 | 1 | 0 | 0 | 0 | 0 | 0 | 0 | 0 | 0 | 
O=C1Nc2ccc(Cl)cc2C(c2ccccc2Cl)=NC1O (configuration not stated) [LORAZEPAM] | 1 | 1 | 0 | 0 | 0 | 2 | 0 | 0 | 0 | 0 | 0 | 0 | 0 | 0 | 
CCCCc1nc(Cl)c(CO)n1Cc1ccc(-c2ccccc2-c2nn[nH]n2)cc1 [LOSARTAN] | 0 | 1 | 0 | 0 | 1 | 2 | 0 | 0 | 0 | 0 | 0 | 0 | 0 | 0 | 
CN1CCN(C2=Nc3ccccc3Oc3ccc(Cl)cc32)CC1 [LOXAPINE] | 0 | 1 | 0 | 0 | 1 | 2 | 0 | 0 | 0 | 0 | 0 | 0 | 0 | 0 | 
CC(=O)O.NCc1ccc(S(N)(=O)=O)cc1 [MAFENIDE ACETATE] | 0 | 0 | 0 | 0 | 0 | 0 | 0 | 0 | 0 | 0 | 0 | 0 | 0 | 0 | 
CCOC(=O)CC(SP(=S)(OC)OC)C(=O)OCC (configuration not stated) [MALATHION] | 0 | 0 | 0 | 0 | 0 | 0 | 0 | 0 | 0 | 0 | 0 | 0 | 0 | 0 | 
OC[C@@H](O)[C@@H](O)[C@H](O)[C@H](O)CO [MANNITOL] | 0 | 0 | 0 | 0 | 0 | 0 | 0 | 0 | 0 | 0 | 0 | 0 | 0 | 0 | 
